The values that follow come from ChEMBL document CHEMBL4342423, “An isoform-selective inhibitor of tropomyosin receptor kinase A behaves as molecular glue” (Bioorg Med Chem Lett, 2020).

Series [1] deals with T1, BDNF/NT-3 growth factors receptor (Homo sapiens, UniProt Q16620). As to the kind of experiment: Inhibition of wild type human N-terminal GST-fusion tagged TRKB kinase domain (456 to 822 residues) expressed in baculovirus expression system by HTRF assay. (In general: In TR-FRET formats the signal depends on donor and acceptor labels being close together.)
Series [2] has as its target T1, BDNF/NT-3 growth factors receptor. The series is described as follows: Binding affinity to TRKB (unknown origin) assessed as dimerization by size exclusion chromatography.

One may read the IC50 as the concentration at which inhibition is half-maximal.

T1 sequence (Q16620 whole entry, the tested form may be a part): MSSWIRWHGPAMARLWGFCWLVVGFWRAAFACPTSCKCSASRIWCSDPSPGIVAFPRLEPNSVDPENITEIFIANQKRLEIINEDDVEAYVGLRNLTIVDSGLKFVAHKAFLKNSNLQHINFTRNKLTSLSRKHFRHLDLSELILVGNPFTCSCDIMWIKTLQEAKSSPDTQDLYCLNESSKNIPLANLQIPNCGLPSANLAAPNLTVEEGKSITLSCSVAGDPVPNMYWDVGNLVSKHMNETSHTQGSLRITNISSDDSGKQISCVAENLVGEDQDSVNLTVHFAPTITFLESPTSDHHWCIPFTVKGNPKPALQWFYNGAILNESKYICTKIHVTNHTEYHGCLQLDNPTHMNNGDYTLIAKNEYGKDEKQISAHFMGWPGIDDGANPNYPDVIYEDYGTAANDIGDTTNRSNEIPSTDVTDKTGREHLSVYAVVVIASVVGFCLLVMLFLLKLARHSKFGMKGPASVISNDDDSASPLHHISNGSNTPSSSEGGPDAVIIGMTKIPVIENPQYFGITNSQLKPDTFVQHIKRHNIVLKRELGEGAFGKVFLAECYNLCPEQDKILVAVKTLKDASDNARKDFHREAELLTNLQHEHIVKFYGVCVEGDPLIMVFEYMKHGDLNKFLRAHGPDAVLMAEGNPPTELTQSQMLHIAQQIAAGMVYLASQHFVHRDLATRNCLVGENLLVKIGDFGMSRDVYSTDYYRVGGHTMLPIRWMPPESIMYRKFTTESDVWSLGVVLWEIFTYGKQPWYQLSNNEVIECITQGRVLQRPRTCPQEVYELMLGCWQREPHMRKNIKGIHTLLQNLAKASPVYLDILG

With `Nc1c(N2CCN(C3CCCCC3)CC2)cc(Nc2ccc(C(=O)O)cc2)c2c1C(=O)c1ccccc1C2=O`, the half-maximal inhibitory concentration (IC50) in series [1] is 94 µM. Besides, the Activity entry in series [2] is recorded as “Not Active”.
Turning to `CC(C)Oc1cc(Nc2nc(N[C@@H](C)c3ccc(F)cn3)ncc2Cl)n[nH]1`, 0.00093 µM corresponded to half-maximal inhibition in series [1] (IC50).
